We go through 24 molecules from patent US7462615B2, “Inhibitors of cysteine proteases, the pharmaceutical compositions thereof and their therapeutic applications” (Hybrigenics SA, priority 2005, dated 2008).

One experiment has as its target T1, Uch-L3 (Homo sapiens, UniProt P15374).
T1 sequence (P15374 1-230): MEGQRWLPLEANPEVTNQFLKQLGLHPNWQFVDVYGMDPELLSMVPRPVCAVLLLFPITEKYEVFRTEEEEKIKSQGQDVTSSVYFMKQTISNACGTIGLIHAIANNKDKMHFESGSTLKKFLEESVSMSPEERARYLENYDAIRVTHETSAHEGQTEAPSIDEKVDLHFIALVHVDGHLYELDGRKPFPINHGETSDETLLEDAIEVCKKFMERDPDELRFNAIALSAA
As to the kind of experiment: UCH-L3 Activity Assay. Type of experiment: biochemical. Particulars: 400 nM Ub-AMC; 13 pM enzyme; pre-incubated 30 minutes at 25° C., 60 minutes at 37° C.; sigmoidal fit; read-out: Uch-L3 (Inhibition of cysteine protease activities). As for the experimental part: Uch-L3 was diluted in USP buffer (50 mM Tris HCl; 0.5 mM EDTA; 5 mM DTT; 0.01% Triton X-100; Bovine Serum Albumin 0.05 mg.ml^−1 pH7.6). Compounds stocks (100 mM) were stored at −20° C. in DMSO. Compounds were tested at the following final concentrations: 100 μM; 33.3 μM; 11.1 μM: 3.7 μM; 1.23 μM; 412 nM; 137 nM; 45.7 nM; 15.2 nM; 5 nM.
Reactions were performed as duplicates in Black LJL 96 well plates (HE microplates; Molecular Devices; 20 μl final reaction volume). The substrate concentration for Uch-L3 was 400 nM Ub-AMC (Boston Biochem). The concentration of the enzyme (Uch-L3) in specificity assays was 13 pM. The concentrations were determined in order to perform specificity assays under initial velocities at fixed substrate concentration. Compounds were pre-incubated with enzymes for 30 minutes at 25° C. Reactions were initiated by addition of substrate to the plates containing the enzymes (+/−compounds) diluted in assay buffer. Reactions were incubated for 60 minutes at 37° C. Reactions were stopped by adding acetic acid (100 mM final). Readings were performed on a Pherastar Fluorescent Reader (BMG). δ Emission 380 nm; δ Excitation=460 nm. Data (mean values +/− standard deviation) were analyzed as % of control (no compound) and plotted as percentage versus the Log of the compound concentration using GraphPad (Prism). Data were fitted to a sigmoidal model (variable slope).

A further experiment deals with T2, MBP-SENP1 (Homo sapiens, UniProt Q9P0U3).
T2 construct: made in house; host or cells: E. coli BL21
T2 sequence (Q9P0U3 1-644): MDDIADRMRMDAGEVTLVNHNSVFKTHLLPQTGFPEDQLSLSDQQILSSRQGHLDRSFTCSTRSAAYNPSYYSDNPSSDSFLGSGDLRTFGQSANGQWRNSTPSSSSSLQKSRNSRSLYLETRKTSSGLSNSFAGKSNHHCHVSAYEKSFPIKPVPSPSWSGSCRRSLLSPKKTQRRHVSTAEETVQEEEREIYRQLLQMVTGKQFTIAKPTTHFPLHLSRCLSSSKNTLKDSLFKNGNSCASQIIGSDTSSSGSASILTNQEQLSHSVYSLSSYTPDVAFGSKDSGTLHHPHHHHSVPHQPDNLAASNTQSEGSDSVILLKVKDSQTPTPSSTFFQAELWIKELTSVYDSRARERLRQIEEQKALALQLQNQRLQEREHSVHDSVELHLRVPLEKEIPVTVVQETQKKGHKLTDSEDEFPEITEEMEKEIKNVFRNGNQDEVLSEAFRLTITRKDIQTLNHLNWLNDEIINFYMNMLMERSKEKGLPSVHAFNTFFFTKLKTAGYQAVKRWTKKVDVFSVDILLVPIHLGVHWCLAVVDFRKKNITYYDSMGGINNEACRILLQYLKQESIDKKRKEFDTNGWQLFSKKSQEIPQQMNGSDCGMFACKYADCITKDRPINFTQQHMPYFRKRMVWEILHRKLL
As to the kind of experiment: SENP1 Activity Assay. Type of experiment: biochemical. Particulars: 200 nM SUMO-AMC; 1.8 nM enzyme; pre-incubated 30 minutes at 25° C., 60 minutes at 37° C.; sigmoidal fit; read-out: SENP1 (Inhibition of cysteine protease activities). As for the experimental part:
The cDNA encoding SENP1 was obtained by PCR amplification from placenta mRNA. SENP1 cDNA was subcloned by PCR into a bacterial expression vector (pMAL-C2X; New England BioLabs, Inc). The sequence was ascertained by sequencing of the entire open reading frame. pMAL-C2-SENP1 was transformed into BL21 cells and grown in LB-ampicillin medium supplemented with glucose (2 g.l^−1). Fusion protein expression was induced by IPTG (0.5 mM). Bacterial cell lysates were harvested and lyzed in lysis buffer (Tris HCl 20 mM pH7.4; 1 mM EDTA; 200 mM NaCl; 0.5% Triton X-100; 10% glycerol; Protease Inhibitor Cocktail) followed by sonication. Proteins were affinity purified on amylose affinity resin (New England BioLabs, Inc). Bound materials were extensively washed in wash buffer (20 mM Tris HCl pH7.4; 200 mM NaCl; 1 mM EDTA; 0.5% Triton X-100; 10% glycerol) and eluted from the resin in 10 mM maltose-containing wash buffer. Proteins were dialyzed in dialysis buffer (Tris HCl pH 7.6 20 mM; NaCl 200 mM; DTT 1 mM; EDTA 1 mM; 10% Glycerol). Proteins purifications were analyzed on 4-12% NuPAGE (Invitrogen).
MBP-SENP1 was diluted in SENP1 buffer (50 mM Tris HCl; 0.5 mM EDTA; 5 mM DTT; 0.01% Triton X-100; Bovine Serum Albumin 0.05 mg.ml^−1 pH7.6). Compounds stocks (100 mM) were stored at −20° C. in DMSO. Compounds were tested at the following final concentrations: 100 μM; 33.3 μM; 11.1 μM; 3.7 μM; 1.23 μM; 412 nM; 137 nM; 45.7 nM; 15.2 nM; 5 nM.
Reactions were performed as duplicates in Black LJL 96 well plates (HE microplates; Molecular Devices; 20 μl final reaction volume). The substrate concentration for SENP1 was 200 nM SUMO-AMC (Chem. Biol., 2003, 10, p. 837-846) (Boston Biochem). The concentration of the enzyme (SENP1) in specificity assays was 1.8 nM. The concentrations were determined in order to perform specificity assays under initial velocities at fixed substrate concentration. Compounds were pre-incubated with enzymes for 30 minutes at 25° C. Reactions were initiated by addition of substrate to the plates containing the enzymes (+/− compounds) diluted in assay buffer. Reactions were incubated for 60 minutes at 37° C. Reactions were stopped by adding acetic acid (100 mM final). Readings were performed on a Pherastar Fluorescent Reader (BMG). λ Emission 380 nm; λ Excitation=460 nm. Data (mean values +/− standard deviation) were analyzed as % of control (no compound) and plotted as percentage versus the Log of the compound concentration using GraphPad (Prism). Data were fitted to a sigmoidal model (variable slope).

Turning to `O=C1c2ccccc2-c2nn3c(C4CC4)nnc3nc21` [Example 1j/B, 3-Cyclopropyl-1,2,3a,4,10-pentaaza-cyclopenta[b]fluoren-9-one], the IC50 stood at 55 nM on Uch-L3 and 299 nM at MBP-SENP1. Consider `O=C1c2ccccc2-c2nc3nnc(CO)n3nc21` [Example 1h/A, 1-Hydroxymethyl-2,3,4,10,10a-pentaaza-cyclopenta[b]fluoren-9-one], for which the IC50 at Uch-L3 was 390 nM. On to `Cc1nnc2nc3c(nn12)C(=O)c1ccccc1-3` [Example 1b/A, 1-Methyl-2,3,4,10,10a-pentaaza-cyclopenta[b]fluoren-9-one], for which the IC50 on Uch-L3 amounted to 516 nM. With `O=C1c2ccccc2-c2nc3nn(Cc4ccccc4)nc3nc21` [Example 4b, 2-Benzyl-2H-1,2,3,4,10-pentaaza-cyclopenta[b]fluoren-9-one], the IC50 on Uch-L3 worked out at 7800 nM. `CCCCc1nnc2nc3c(nn12)-c1ccccc1C3=O` [Example 1f/B, 3-Butyl-1,2,3a,4,10-pentaaza-cyclopenta[b]fluoren-9-one]: the IC50 stood at 91 nM at Uch-L3 and 229 nM on MBP-SENP1. Turning to `Nc1nnc2nc3c(nn12)-c1ccccc1C3=O` [Example 1c/B, 3-Amino-1,2,3a,4,10-pentaaza-cyclopenta[b]fluoren-9-one], the IC50 is 133 nM on Uch-L3 and 731 nM at MBP-SENP1. Consider `CC(C)Cc1nnc2nc3c(nn12)C(=O)c1ccccc1-3` [Example 1g/A, 1-Isobutyl-2,3,4,10,10a-pentaaza-cyclopenta[b]fluoren-9-one], for which the results for the IC50 at Uch-L3 and on MBP-SENP1 were 636 nM and more than 100000 nM, respectively. The matching figures for `O=C1c2ccccc2-c2nc3nnc(C4CC4)n3nc21` [Example 1j/A, 1-Cyclopropyl-2,3,4,10,10a-pentaaza-cyclopenta[b]fluoren-9-one]: 1900 nM and more than 100000 nM. For `Cc1nnc2nc3c(nn12)-c1ccccc1C3=O` [Example 1b/B, 3-Methyl-1,2,3a,4,10-pentaaza-cyclopenta[b]fluoren-9-one], the IC50 is 143 nM at Uch-L3 and 706 nM at MBP-SENP1.

Consider `O=C1c2ccccc2-c2nn3c(CO)nnc3nc21` [Example 1h/B], for which the IC50 at Uch-L3 is 158 nM; at MBP-SENP1, 1020 nM. For the molecule `Cn1nc2nc3c(nc2n1)-c1ccccc1C3=O` [Example 4a, 2-Methyl-2H-1,2,3,4,10-pentaaza-cyclopenta[b]fluoren-9-one], the IC50 on Uch-L3 was 3400 nM. Regarding `CCCc1nnc2nc3c(nn12)C(=O)c1ccccc1-3` [Example 1e/A, 1-Propyl-2,3,4,10,10a-pentaaza-cyclopenta[b]fluoren-9-one], the IC50 was 1270 nM at Uch-L3 and 5880 nM on MBP-SENP1. Turning to `O=C1c2ccccc2-c2nc3nnc(Cc4ccccc4)n3nc21` [Example 1k/A, 1-Benzyl-2,3,4,10,10a-pentaaza-cyclopenta[b]fluoren-9-one], the figures for the IC50 at Uch-L3 and at MBP-SENP1 were 598 nM and more than 100000 nM, respectively.

With `CCCc1nnc2nc3c(nn12)-c1ccccc1C3=O` [Example 1e/B, 3-Propyl-1,2,3a, 4,10-pentaaza-cyclopenta[b]fluoren-9-one], the values for the IC50 on Uch-L3 and on MBP-SENP1 were 168 nM and 694 nM, respectively. In the case of `O=C1c2ccccc2-c2nn3c(Cc4ccccc4)nnc3nc21` [Example 1k/B, 3-Benzyl-1,2,3a,4,10-pentaaza-cyclopenta[b]fluoren-9-one], the figures for the IC50 on Uch-L3 and on MBP-SENP1 were 164 nM and 1210 nM, respectively. Consider “6-(7)-Chloro-1-methyl-2,3,4,10,10a-pentaaza-cyclopenta[b]fluoren-9-one [Example 3/A]”, for which the IC50 on Uch-L3 was 323 nM; at MBP-SENP1 it was more than 100000 nM. For `CC(C)Cc1nnc2nc3c(nn12)-c1ccccc1C3=O` [Example 1g/B, 3-Isobutyl-1,2,3a,4,10-pentaaza-cyclopenta[b]fluoren-9-one], the IC50 is 183 nM on Uch-L3 and 954 nM at MBP-SENP1. Take `Nc1nnc2nc3c(nn12)C(=O)c1ccccc1-3` [Example 1c/A, 1-Amino-2,3,4,10,10a-pentaaza-cyclopenta[b]fluoren-9-one]: the IC50 at Uch-L3 turned out to be 860 nM.

`COCc1nnc2nc3c(nn12)C(=O)c1ccccc1-3` [Example 1i/A, 1-Methoxymethyl-2,3,4,10,10a-pentaaza-cyclopenta[b]fluoren-9-one]: the IC50 was 261 nM on Uch-L3 and 22100 nM on MBP-SENP1. As to `CCc1nnc2nc3c(nn12)C(=O)c1ccccc1-3` [Example 1d/A, 1-Ethyl-2,3,4,10,10a-pentaaza-cyclopenta[b]fluoren-9-one], the IC50 at Uch-L3 is 430 nM; at MBP-SENP1 it was more than 100000 nM. For the molecule `CCCCc1nnc2nc3c(nn12)C(=O)c1ccccc1-3` [Example 1f/A, 1-Butyl-2,3,4,10,10a-pentaaza-cyclopenta[b]fluoren-9-one], the IC50 on Uch-L3 is 364 nM; at MBP-SENP1, more than 100000 nM. With `CCc1nnc2nc3c(nn12)-c1ccccc1C3=O` [Example 1d/B, 3-Ethyl-1,2,3a, 4,10-pentaaza-cyclopenta[b]fluoran-9-one], the IC50 at Uch-L3 worked out at 95 nM; at MBP-SENP1, 415 nM. On the same counts, the results for `Cc1nnc2nc3c(nn12)-c1ccc(Cl)cc1C3=O` [Example 3/B, 7-Chloro-3-methyl-1,2,3a, 4,10-pentaaza-cyclopenta[b]fluoren-9-one] are 71 nM and 855 nM. On the same counts, the results for `COCc1nnc2nc3c(nn12)-c1ccccc1C3=O` [Example 1i/B, 3-Methoxymethyl-1,2,3a, 4,10-pentaaza-cyclopenta[b]fluoren-9-one] are 202 nM and 1090 nM.
